Measured values: the supplement of paper PMC10307832

How the values were obtained:
Test in all cases: relative viability (nuclei count vs DMSO), 5 days (fraction); higher = more cells survive
OSI-027 + Linsitinib = compound: COc1cccc2cc(-c3nc([C@H]4CC[C@H](C(=O)O)CC4)n4ncnc(N)c34)[nH]c12 [OSI-027] + C[C@]1(O)C[C@@H](c2nc(-c3ccc4ccc(-c5ccccc5)nc4c3)c3c(N)nccn32)C1 [Linsitinib] (partner 1 µM)
Summary of the method: (§1)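 Relative viability equals treated-well nuclei counts divided by vehicle-well nuclei counts. Counts came from 4× images of lung cancer cell lines grown in 1536-well plates for 5 days after pin-tool dosing on the day after seeding. Dosing used one drug alone or a fixed anchor-drug dose plus five library-drug doses (not always all listed) in √10 steps, and values are medians of duplicate plates.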

Vemurafenib + Tozasertib = compound: CCCS(=O)(=O)Nc1ccc(F)c(C(=O)c2c[nH]c3ncc(-c4ccc(Cl)cc4)cc23)c1F [Vemurafenib] + Cc1cc(Nc2cc(N3CCN(C)CC3)nc(Sc3ccc(NC(=O)C4CC4)cc3)n2)n[nH]1 [Tozasertib] (partner 0.1 µM)
Summary of the method: as §1

Vemurafenib + Navitoclax = compound: CCCS(=O)(=O)Nc1ccc(F)c(C(=O)c2c[nH]c3ncc(-c4ccc(Cl)cc4)cc23)c1F [Vemurafenib] + CC1(C)CCC(c2ccc(Cl)cc2)=C(CN2CCN(c3ccc(C(=O)NS(=O)(=O)c4ccc(N[C@H](CCN5CCOCC5)CSc5ccccc5)c(S(=O)(=O)C(F)(F)F)c4)cc3)CC2)C1 [Navitoclax] (partner 0.5 µM)
Summary of the method: as §1

Vemurafenib + Decitabine = compound: CCCS(=O)(=O)Nc1ccc(F)c(C(=O)c2c[nH]c3ncc(-c4ccc(Cl)cc4)cc23)c1F [Vemurafenib] + Nc1ncn([C@H]2C[C@H](O)[C@@H](CO)O2)c(=O)n1 [Decitabine] (partner 2 µM)
Summary of the method: as §1

Cell Line | relative viability (OSI-027 + Linsitinib; first compound 0.01 µM) | relative viability (OSI-027 + Linsitinib; first compound 0.03162 µM) | relative viability (OSI-027 + Linsitinib; first compound 0.1 µM) | relative viability (OSI-027 + Linsitinib; first compound 0.3162 µM) | relative viability (OSI-027 + Linsitinib; first compound 1 µM) | relative viability (Vemurafenib + Tozasertib; first compound 0.03162 µM) | relative viability (Vemurafenib + Tozasertib; first compound 0.1 µM) | relative viability (Vemurafenib + Tozasertib; first compound 0.3162 µM) | relative viability (Vemurafenib + Tozasertib; first compound 1 µM) | relative viability (Vemurafenib + Navitoclax; first compound 0.03162 µM) | relative viability (Vemurafenib + Navitoclax; first compound 0.1 µM) | relative viability (Vemurafenib + Navitoclax; first compound 0.3162 µM) | relative viability (Vemurafenib + Navitoclax; first compound 1 µM) | relative viability (Vemurafenib + Decitabine; first compound 0.03162 µM) | relative viability (Vemurafenib + Decitabine; first compound 0.1 µM) | relative viability (Vemurafenib + Decitabine; first compound 0.3162 µM) | relative viability (Vemurafenib + Decitabine; first compound 1 µM)
201T | 0.932 | 0.974 | 1.01 | 0.833 | 0.936 | 0.95 | 0.915 | 0.925 | 0.975 | 1.16 | 1.26 | 1.2 | 1.14 | 0.821 | 0.825 | 0.886 | 0.799
SK-LU-1 | 1.06 | 0.83 | 0.63 | 0.406 | 0.306 | 0.255 | 0.283 | 0.294 | 0.298 | 0.914 | 0.74 | 0.751 | 0.564 | 0.638 | 0.588 | 0.504 | 0.56
LC-2-ad | 0.847 | 0.751 | 0.803 | 0.694 | 0.291 | 0.396 | 0.466 |  | 0.44 | 0.457 | 0.422 | 0.535 | 0.46 | 0.8 | 0.706 | 0.859 | 0.796
NCI-H1793 | 1.04 | 0.875 | 0.612 | 0.225 | 0.188 | 0.288 |  | 0.323 | 0.264 | 0.389 |  | 0.361 | 0.454 | 0.449 | 0.325 | 0.672 | 0.492
NCI-H1944 | 1.11 | 1.14 | 1.05 | 0.771 | 0.836 | 0.268 | 0.201 | 0.274 | 0.256 | 1.06 | 0.846 | 1.05 | 1.04 | 0.488 |  | 0.45 | 0.456
SK-MES-1 | 1.01 | 0.956 | 0.911 | 0.737 | 0.538 | 0.831 | 0.915 | 0.829 | 0.751 | 1.25 | 1.3 | 1.27 | 1.13 | 0.384 | 0.334 | 0.38 | 0.386
NCI-H2347 | 1.03 | 0.877 | 0.883 | 0.885 | 0.521 | 0.452 | 0.53 | 0.507 | 0.482 | 0.633 | 0.78 | 0.7 | 0.75 | 0.588 | 0.538 | 0.562 | 0.613
PC-14 | 0.944 | 0.946 | 0.891 | 0.914 | 0.582 | 0.557 |  | 0.376 | 0.551 | 0.915 |  | 0.977 | 0.937 | 0.223 |  | 0.181 | 0.237
